Results taken from US12173026B2, “PRMT5 inhibitors” (Merck Sharp & Dohme LLC, priority 2018, dated 2024).

What follows are compounds tested on symmetric dimethylation of arginine (SDMA) of PRMT5 substrates in MCF-7 cells (assay: PRMT5 Cell Target Engagement (TE) Assay). Conditions: Homo sapiens, MCF7, 72 h; MCF-7 cells treated for 3 days; nuclear SDMA by high content imaging; top concentration 10000 nM.
Format: cell-based
Summary of the method: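 MCF-7 cells treated 3 days at 37 °C with 10-point 1:3 titration from 10000 nM top. Fixed cells stained with anti-SDMA antibody plus Alexa488 secondary and Hoechst; nuclear fluorescence quantified by high-content imaging versus DMSO wells. EC50 from 4-parameter fit of percent fluorescence vs log concentration.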

Q: For `CNc1ncnc2c1c(F)cn2[C@@H]1O[C@@H]2[C@H](Cc3ccc4cc(Br)c(N)nc4c3)CC[C@]2(O)[C@H]1O` [Example 96, (2R,3R,3aS,6S,6aR)-6-((2-amino-3-bromoquinolin-7-yl)methyl)-2-(5-fluoro-4-(methylamino)-7H-pyrrolo[2,3-d]pyrimidin-7-yl)hexahydro-3aH-cyclopenta[b]furan-3,3a-diol], which EC50 is on record?
A: The EC50 was 11.1 nM.

Q: For `CNc1ncnc2c1ccn2[C@@H]1C[C@@H]2[C@H](Cc3ccc4cc(Br)c(N)nc4c3)CC[C@]2(O)[C@H]1O` [Example 97, (1S,2R,3aR,4S,6aR)-4-((2-amino-3-bromoquinolin-7-yl)methyl)-2-(4-(methylamino)-7H-pyrrolo[2,3-d]pyrimidin-7-yl)hexahydropentalene-1,6a(1H)-diol], which EC50 is on record?
A: The EC50 was 1.3 nM.

Q: Which EC50 does the source give for `C[C@]1(COc2ccc3cccnc3c2)O[C@@H](n2ccc3c(N)ncnc32)[C@H](O)[C@@H]1O` [Example 98, (2R,3S,4R,5R)-5-(4-amino-7H-pyrrolo[2,3-d]pyrimidin-7-yl)-2-methyl-2-((quinolin-7-yloxy)methyl)tetrahydrofuran-3,4-diol] here?
A: The EC50 was 272 nM.

Q: `C[C@@]1(O)[C@@H](COc2ccc3cccnc3c2)O[C@@H](n2ccc3c(N)ncnc32)[C@@H]1O` [Example 99, (2R,3S,4R,5R)-5-(4-amino-7H-pyrrolo[2,3-d]pyrimidin-7-yl)-3-methyl-2-((quinolin-7-yloxy)methyl)tetrahydrofuran-3,4-diol] was tested. Which EC50 did it give?
A: The EC50 was 202 nM.

Q: How did the EC50 turn out when `C[C@]1(COc2ccc3cc(Br)c(N)nc3c2)C[C@@H](n2ccc3c(N)ncnc32)[C@H](O)[C@@H]1O` [Example 100, (1S,2R,3R,5R)-3-(((2-amino-3-bromoquinolin-7-yl)oxy)methyl)-5-(4-amino-7H-pyrrolo[2,3-d]pyrimidin-7-yl)-3-methylcyclopentane-1,2-diol] was run?
A: Its EC50 is 7.4 nM.

Q: `C[C@]1(COc2ccc3ccc(N)nc3c2)C[C@@H](n2ccc3c(N)ncnc32)[C@H](O)[C@@H]1O` [Example 101, (1S,2R,3R,5R)-5-(4-amino-7H-pyrrolo[2,3-d]pyrimidin-7-yl)-3-(((2-aminoquinolin-7-yl)oxy)methyl)-3-methylcyclopentane-1,2-diol] was tested. Which EC50 did it give?
A: The EC50 was 1 nM.

Q: For `C[C@@]1(O)[C@@H](CCc2ccc3cc(Br)c(N)nc3c2)C[C@@H](n2ccc3c(N)ncnc32)[C@@H]1O` [Example 103, (1R,2S,3R,5S)-5-(2-(2-amino-3-bromoquinolin-7-yl)ethyl)-3-(4-amino-7H-pyrrolo[2,3-d]pyrimidin-7-yl)-1-methylcyclopentane-1,2-diol], which EC50 is on record?
A: The EC50 was 12.4 nM.

Q: For `Nc1ccc2ccc(O[C@H]3CC[C@@]4(O)[C@@H]3O[C@@H](n3ccc5c(N)ncnc53)[C@@H]4O)cc2n1` [Example 104, (2R,3R,3aS,6S,6aR)-2-(4-amino-7H-pyrrolo[2,3-d]pyrimidin-7-yl)-6-((2-aminoquinolin-7-yl)oxy)hexahydro-2H-cyclopenta[b]furan-3,3a-diol], which EC50 is on record?
A: The EC50 was 7 nM.

Q: With `C[C@@]1(O)[C@@H](COc2ccc3ccc(N)nc3c2)C[C@@H](n2ccc3cncnc32)[C@@H]1O` [Example 105, (1R,2S,3R,5R)-5-(((2-aminoquinolin-7-yl)oxy)methyl)-1-methyl-3-(7H-pyrrolo[2,3-d]pyrimidin-7-yl)cyclopentane-1,2-diol] as the compound, how does the EC50 read?
A: Its EC50 is 0.9 nM.

Q: Which EC50 does the source give for `Cc1cc2ccc(OC[C@H]3C[C@@H](n4ccc5c(C)ncnc54)[C@H](O)[C@]3(C)O)cc2nc1N` [Example 106, (1R,2S,3R,5R)-5-(((2-amino-3-methylquinolin-7-yl)oxy)methyl)-1-methyl-3-(4-methyl-7H-pyrrolo[2,3-d]pyrimidin-7-yl)cyclopentane-1,2-diol] here?
A: The EC50 was 0.5 nM.

Q: For `Cc1ncnc2c1ccn2[C@@H]1O[C@@H]2[C@H](Cc3ccc4ccc(N)nc4c3)CC[C@]2(O)[C@H]1O` [Example 107, (2R,3R,3aS,6S,6aR)-6-((2-aminoquinolin-yl)methyl)-2-(4-methyl-7H-pyrrolo[2,3-d]pyrimidin-7-yl)hexahydro-2H-cyclopenta[b]furan-3,3a-diol], which EC50 is on record?
A: Its EC50 is 0.5 nM.

Q: For `Nc1nc2cc(C[C@@H]3CC[C@@]4(O)[C@@H]3O[C@@H](n3cc(F)c5c(N)ncnc53)[C@@H]4O)ccc2cc1Br` [Example 108], which EC50 is on record?
A: Its EC50 is 0.9 nM.

Q: For `Cc1ncnc2c1ccn2[C@@H]1C[C@](C)(CCc2ccc3cc(Br)c(N)nc3c2)[C@@H](O)[C@H]1O` [Example 109, (1S,2R,3S,5R)-3-(2-(2-amino-3-bromoquinolin-7-yl)ethyl)-3-methyl-5-(4-methyl-7H-pyrrolo[2,3-d]pyrimidin-7-yl)cyclopentane-1,2-diol], which EC50 is on record?
A: Its EC50 is 5.9 nM.

Q: `Cc1ncnc2c1ccn2[C@@H]1C[C@](C)(CCc2ccc3cc4c(nc3c2)NCC4)[C@@H](O)[C@H]1O` [Example 110, (1S,2R,3S,5R)-3-(2-(2,3-dihydro-1H-pyrrolo[2,3-b]quinolin-7-yl)ethyl)-3-methyl-5-(4-methyl-7H-pyrrolo[2,3-d]pyrimidin-7-yl)cyclopentane-1,2-diol] was tested. Which EC50 did it give?
A: Its EC50 is 39.6 nM.

Q: Which EC50 does the source give for `C[C@]1(COc2ccc3cc(Br)c(N)nc3c2)C[C@@H](n2ccc3c(N)ncnc32)[C@H](O)[C@]1(C)O` [Example 111, (1R,2S,3R,5R)-5-(((2-amino-3-bromoquinolin-7-yl)oxy)methyl)-3-(4-amino-7H-pyrrolo[2,3-d]pyrimidin-7-yl)-1,5-dimethylcyclopentane-1,2-diol] here?
A: Its EC50 is 2330 nM.

Q: For `Cc1ncnc2c1ccn2[C@@H]1O[C@@H]2[C@@H](Oc3ccc4cc(Cl)c(N)nc4c3)CC[C@]2(O)[C@H]1O` [Example 112, (2R,3R,3aS,6S,6aR)-6-((2-amino-3-chloroquinolin-7-v)oxy)-2-(4-methyl-7H-pyrrolo[2,3-d]pyrimidin-7-yl)hexahydro-2H-cyclopenta[b]furan-3,3a-diol], which EC50 is on record?
A: The EC50 was 4 nM.

Q: Which EC50 does the source give for `Cc1ncnc2c1ccn2[C@@H]1O[C@@H]2[C@@H](Oc3ccc4ccc(N)nc4c3)CC[C@]2(O)[C@H]1O` [Example 113, (2R,3R,3aS,6S,6aR)-6-((2-aminoquinolin-7-yl)oxy)-2-(4-methyl 7H-pyrrolo[2,3-d]pyrimidin-7-yl)hexahydro-2H-cyclopenta[b]furan-3,3a-diol] here?
A: Its EC50 is 1.8 nM.

Q: With `Cc1nc(N)nc2c1ccn2[C@@H]1O[C@@H]2[C@@H](Oc3ccc4cc(Br)c(N)nc4c3)CC[C@]2(O)[C@H]1O` [Example 114, (2R,3R,3aS,6S,6aR)-6-((2-amino-3-bromoquinolin-7-yl)oxy)-2-(2-amino-4-methyl-7H-pyrrolo[2,3-d]pyrimidin-7-yl)hexahydro-3aH-cyclopenta[b]furan-3,3a-diol] as the compound, how does the EC50 read?
A: The EC50 was 4.4 nM.

Q: Which EC50 does the source give for `Cc1ncnc2c1ccn2[C@@H]1O[C@@H]2[C@@H](Oc3ccc4cc(C(F)F)c(N)nc4c3)CC[C@]2(O)[C@H]1O` [Example 115, (2R,3R,3aS,6S,6aR)-6-((2-amino-3-(difluoromethyl)quinolin-7-yl)oxy)-2-(4-methyl-7H-pyrrolo[2,3-d]pyrimidin-7-yl)hexahydro-3aH-cyclopenta[b]furan-3,3a-diol] here?
A: The EC50 was 13.6 nM.

Q: How did the EC50 turn out when `C[C@@]1(CCc2ccc3cc(F)c(N)nc3c2)C[C@@H](n2ccc3c(N)ncnc32)[C@H](O)[C@@H]1O` [Example 116, (1S,2R,3R,5R)-3-(2-(2-amino-3-fluoroquinolin-7-yl)ethyl)-5-(4-amino-7H-pyrrolo[2,3-d]pyrimidin-7-yl)-3-methylcyclopentane-1,2-diol] was run?
A: The EC50 was 53.7 nM.

Q: How did the EC50 turn out when `C[C@]1(CCc2ccc3cc(Br)c(N)nc3c2)C[C@@H](n2ccc3c(N)ncnc32)[C@H](O)[C@]1(C)O` [Example 117, (1R,2S,3R,5S)-5-(2-(2-amino-3-bromoquinolin-7-yl)ethyl)-3-(4-amino-7H-pyrrolo[2,3-d]pyrimidin-7-yl)-1,5-dimethylcyclopentane-1,2-diol] was run?
A: Its EC50 is 8.5 nM.

Q: Which EC50 does the source give for `C[C@]1(O)[C@@H](O)[C@H](n2ccc3c(N)ncnc32)C[C@]1(O)CCc1ccc2cc(Br)c(N)nc2c1` [Example 118, (1R,2S,3S,4R)-1-(2-(2-amino-3-bromoquinolin-7-yl)ethyl)-4-(4-amino-7H-pyrrolo[2,3-d]pyrimidin-7-yl)-2-methylcyclopentane-1,2,3-triol] here?
A: The EC50 was 103 nM.

Q: How did the EC50 turn out when `Nc1nc2cc(O[C@H]3CC[C@@]4(O)[C@@H]3C[C@@H](n3ccc5c(N)ncnc53)[C@@H]4O)ccc2cc1Br` [Example 119, (1S,2R,3aR,4S,6aR)-4-((2-amino-3-bromoquinolin-7-yl)oxy)-2-(4-amino-7H-pyrrolo[2,3-d]pyrimidin-7-yl)hexahydropentalene-1,6a(1H)-diol 2,2,2-trifluoroacetate] was run?
A: The EC50 was 180 nM.

Q: How did the EC50 turn out when `Cc1ncnc2c1ccn2[C@@H]1O[C@@H]2[C@@H](Nc3ccc4cc(F)c(N)nc4c3)CC[C@]2(O)[C@H]1O` [Example 120, (2R,3R,3aS,6S,6aR)-6-(2-amino-3-fluoroquinolin-7-yl)amino-2-(4-methyl-7H-pyrrolo[2,3-d]pyrimidin-7-yl)hexahydro-3aH-cyclopenta[b]furan-3,3a-diol] was run?
A: The EC50 was 2 nM.

Q: With `C[C@]12O[C@@H](n3ccc4c(N)ncnc43)[C@H](O)[C@@]1(O)CC[C@H]2Cc1ccc2cc(F)c(N)nc2c1` [Example 121, (2R,3R,3aS,6S,6aR)-6-((2-amino-3-fluoroquinolin-7-yl)methyl)-2-(4-amino-7H-pyrrolo[2,3-d]pyrimidin-7-yl)-6a-methylhexahydro-3aH-cyclopenta[b]furan-3,3a-diol] as the compound, how does the EC50 read?
A: Its EC50 is 1 nM.

Q: `Cc1ncnc2c1ccn2[C@@H]1O[C@@H]2[C@H](Cc3ccc4cc(Cl)c(N)nc4c3)CC[C@]2(O)[C@H]1O` [Example 122, (2R,3R,3aS,6S,6aR)-6-((2-amino-3-chloroquinolin-7-yl)methyl)-2-(4-methyl-7H-pyrrolo[2,3-d]pyrimidin-7-yl)hexahydro-3aH-cyclopenta[b]furan-3,3a-diol] was tested. Which EC50 did it give?
A: The EC50 was 2.5 nM.

Q: With `Cc1ncnc2c1ccn2[C@@H]1O[C@@H]2[C@H](Cc3ccc4cc(F)c(N)nc4c3)CC[C@]2(O)[C@H]1O` [Example 123, (2R,3R,3aS,6S,6aR)-6-((2-amino-3-fluoroquinolin-7-yl)methyl)-2-(4-methyl-7H-pyrrolo[2,3-d]pyrimidin-7-yl)hexahydro-3aH-cyclopenta[b]furan-3,3a-diol] as the compound, how does the EC50 read?
A: Its EC50 is 13.1 nM.
